Key:
Candida albicans KMM 455 = test: Antimicrobial activity, microbial growth in broth (OD620); assay type: cell-based; details: for inhibition of growth at 100 µM: Candida albicans, KMM455, compound at 100 µM, read-out: Inhibition of Microbial Growth, % of Control, C. albicans
Experimental: (§1) The yeast-like fungus Candida albicans KMM 455 and bacterial strains Staphylococcus aureus ATCC 21027 and Escherichia coli VKPM (B-7935) (Collection of Marine Microorganisms PIBOC FEB RAS) were cultured on solid-medium Mueller–Hinton broth with agar (16.0 g/L) in a Petri dish at 37 °C for 24 h. The assays were performed in 96-well microplates in an appropriate Mueller–Hinton broth. Each well contained 90 µL of a bacterial or yeast-like fungal suspension (10^6 CFU/mL). Then, 10 µL was added of a compound diluted at concentrations from 1.5 µM to 100.0 µM using twofold dilution (DMSO concentration < 1%). Culture plates were incubated overnight at 37 °C, and the OD620 was measured using a Multiskan FC spectrophotometer (Thermo Scientific Inc., Beverly, MA, USA). The antibiotic gentamicin and antifungal agent nitrofungin were used as positive controls at 1 mg/mL; 1% DMSO in PBS served as a negative control. Examination was performed twice and in triplicate. The results were calculated as a percentage of the control data using SigmaPlot 14.0 software.

[1] = test system: Escherichia coli VKPM (B-7935); test: as above; assay type: cell-based; details: read-out: Inhibition of Microbial Growth, % of Control, E. coli; for inhibition of growth at 100 µM: compound at 100 µM
Experimental: as §1

[2] = test system: Staphylococcus aureus ATCC 21027; test: as above; assay type: cell-based; details: read-out: Inhibition of Microbial Growth, % of Control, S. aureus; for inhibition of growth at 100 µM: ATCC21027, compound at 100 µM
Experimental: as §1

[3] = test system: normal human kidney cells; test: Cytotoxic activity (MTT assay); assay type: cell-based; details: 100 µM, 24 h
Experimental: (§2) The influence of compounds 1, 2 and 4–14 on the viability of normal human kidney […] cells, as well as human prostate PC-3, cervical HeLa and breast MCF-7 cancer cells, was measured using the MTT assay after 24 h of treatment.
(§3) The human prostate cancer cells PC-3 and CRL-1435 and the human embryonic kidney cells HEK-293 and CRL-1573TM were purchased from the American Type Culture Collection (ATCC; Manassas, VA, USA). PC-3 and HEK-293 cells were cultured in DMEM medium containing 10% fetal bovine serum (Biolot, St. Petersburg, Russia) and 1% penicillin/streptomycin (Biolot, St. Petersburg, Russia) at 37 °C in a humidified atmosphere with 5% (v/v) CO2. The cells were incubated in cultural flasks until sub-confluent (~80%).
(§4) PC-3 cells (5 × 10^3 cells/well) and HEK 293 cells (8 × 10^3 cells/well) were seeded in a 96-well plate and incubated overnight. Then, compounds were added at concentrations of 1–100 μM and incubated for another 24 h. Cell viability was then determined by the MTT (3-(4,5-dimethylthiazol-2-yl)-2,5-diphenyltetrazolium bromide) method according to the manufacturer’s instructions (Sigma-Aldrich, St. Louis, MO, USA). The absorbance of the converted formazan was measured using a Multiskan FC microplate photometer (Thermo Scientific, Waltham, MA, USA) at λ = 570 nm. The results are presented as percentages of the control data.

[4] = test system: human prostate PC-3 cancer cells; test: Cytotoxic activity (MTT assay); assay type: cell-based; details: 100 µM, 24 h, MTT
Experimental: as §3
as §4, with “Then, compounds were added at concentrations of 1–100 μM and incubated for another 24 h.” left out

[5] = test system: cervical HeLa cancer cells; test: Cytotoxic activity (MTT assay); assay type: cell-based, human; details: 24 h; for Cell Viability, % of Control, HeLa: 100 µM, MTT; for IC50: Homo sapiens, HeLa, read-out: IC50, HeLa cell viability
[6] = test system: breast MCF-7 cancer cells; test: Cytotoxic activity (MTT assay); assay type: cell-based, human; details: 100 µM, 24 h, MTT
Experimental: as §2
as §4, with “Then, compounds were added at concentrations of 1–100 μM and incubated for another 24 h.” left out

[7] = test system: CoCl2-treated HEK-293 cells; test: Lipid peroxidation level (MitoCLox) in CoCl2-treated cells; assay type: cell-based, human; details: MitoCLox fluorescence dye
Experimental: The fluorescence probe MitoCLox (Lumiprobe, Moscow, Russia) was used for the detection of the lipid peroxidation level in CoCl2-treated cells. It was added in the cells for 1 h at a concentration of 200 nM. After 1 h, the cells were washed with PBS and fluorescence was measured in ratiometric mode with λem = 520/590 nm using a PHERAStar FS plate reader (BMG Labtech, Offenburg, Germany). The data were processed with MARS Data Analysis v. 3.01R2 (BMG Labtech, Offenburg, Germany) and calculated as a 520/590 ratio.

[8] = test system: autophagy-related cargo protein p62; parameters: method as in PMID 28218691; details: PC-3 cells; cited from earlier work
MCF-7 cells = test: Drug combination study with doxorubicin (MTT); assay type: cell-based, human; details: 24 h

| SMILES | inhibition of growth at 100 µM (Candida albicans KMM 455) | inhibition of growth at 100 µM [1] | inhibition of growth at 100 µM [2] | Cell Viability, % of Control, HEK-298 [3] | Cell Viability, % of Control, PC-3 [4] | Cell Viability, % of Control, HeLa [5] | Cell Viability, % of Control, MCF-7 [6] | lipid peroxide levels in CoCl2-treated HEK-293 cells [7] | IC50 [5] | effect on autophagy-related cargo protein p62 [8] | inhibition of growth at 1000 µg/mL ([1]; positive control at 1 mg/mL) | inhibition of growth at 1000 µg/mL ([2]; ATCC21027, positive control at 1 mg/mL) | decrease of MCF-7 cell viability (MCF-7 cells; doxorubicin alone at 0.1 µM) | decrease of MCF-7 cell viability (MCF-7 cells; doxorubicin alone at 1 µM) | Inhibition of Microbial Growth, % of Control, C. albicans (Candida albicans KMM 455; positive control at 1 mg/mL) |
| --- | --- | --- | --- | --- | --- | --- | --- | --- | --- | --- | --- | --- | --- | --- | --- |
| CC1=C[C@H](O)[C@H]2C[C@@H](C)CC[C@@H]2[C@H]1C(=O)CCO [Compound 1, zosteropenilline M] | 8.32 ± 0.62% | 0% | 30.1 ± 2.42% | 95.16 ± 4.01 % of Control | 89.25 ± 0.44 % of Control | 66.49 ± 6.19 % of Control | 86.42 ± 1.76 % of Control | significantly decreased | – | – | – | – | – | – | – |
| CC1=CC(O)C2CC(C)(O)CCC2C1C(=O)CCO (stereo not drawn) [Compound 2, 11-epi-8-hydroxyzosteropenilline M] | 6.12 ± 1.89% | 0% | 0% | 90.98 ± 2.82 % of Control | 90.98 ± 2.82 % of Control | 44.12 ± 5.13 % of Control | 57.46 ± 1.82 % of Control | – | 87.3 µM | – | – | – | – | – | – |
| CC1(O)CCC2C(C=CC(C)(O)C2C(=O)CCO)C1 (stereo not shown) [Compound 4, 8-hydroxyzosteropenilline G] | 11 ± 2.31% | 0% | 0% | 94.71 ± 1.53 % of Control | 94.71 ± 1.53 % of Control | 81.80 ± 6.76 % of Control | 81.92 ± 3.92 % of Control | – | – | – | – | – | – | – | – |
| CC(=O)[C@@H]1[C@H]2CC[C@@](C)(O)C[C@@H]2C=C[C@@]1(C)O [Compound 5, zosteropenilline O] | 35.3 ± 1.16% | 0% | 0% | 85.64 ± 1.85 % of Control | 91.20 ± 3.37 % of Control | 37.12 ± 3.85 % of Control | 77.40 ± 2.73 % of Control | significantly decreased | 82.5 µM | – | – | – | – | – | – |
| CC(=O)[C@@H]1[C@H]2CC[C@H](CO)C[C@@H]2C=C[C@@]1(C)O [Compound 6, zosteropenilline P] | 17.3 ± 2.55% | 0% | 29 ± 1.66% | 83.26 ± 3.78 % of Control | 83.15 ± 1.72 % of Control | 71.44 ± 3.99 % of Control | 82.05 ± 1.31 % of Control | – | – | – | – | – | – | – | – |
| CC(=O)C1C2CCC(C)C(O)C2C=CC1(C)O (stereo not shown) [Compound 7, zosteropenilline Q] | 19.2 ± 3.12% | 0% | 29.9 ± 4.5% | 80.00 ± 0.99 % of Control | 88.70 ± 1.10 % of Control | 80.80 ± 3.25 % of Control | 76.23 ± 4.53 % of Control | – | – | – | – | – | – | – | – |
| C[C@H]1C=C[C@H]2[C@H](O)[C@@H](C)CC[C@@H]2[C@H]1C(=O)CCO [Compound 8, 13-dehydroxypallidopenilline A] | 0% | 0% | 19.9 ± 1.82% | 86.10 ± 2.24 % of Control | 83.60 ± 1.81 % of Control | 72.66 ± 2.49 % of Control | 81.21 ± 5.56 % of Control | – | – | – | – | – | – | – | – |
| C[C@H]1CC[C@H]2C(=C[C@@H](O)[C@@](C)(O)[C@@H]2C(=O)CCO)C1 [Compound 9, zosteropenilline R] | 12 ± 1.14% | 0% | 11.7 ± 1.71% | 96.45 ± 7.64 % of Control | 96.44 ± 7.63 % of Control | 79.14 ± 6.36 % of Control | 79.64 ± 1.67 % of Control | significantly decreased | – | – | – | – | – | – | – |
| CC1CCC2C(C1)C(Cl)C(O)C(C)(O)C2C(=O)CCO (stereo not shown) [Compound 10, zosteropenilline S] | 0% | 0% | 15.7 ± 0.36% | 98.10 ± 1.15 % of Control | 85.98 ± 2.13 % of Control | 68.69 ± 6.21 % of Control | 84.85 ± 4.90 % of Control | – | – | – | – | – | – | – | – |
| C[C@H]1CC[C@@H]2[C@@H](C(=O)CCO)[C@](C)(O)C=C[C@H]2C1 [Compound 11, zosteropenilline G] | 18.1 ± 2.58% | 0% | 16.9 ± 4.12% | 93.97 ± 2.36 % of Control | 93.97 ± 2.36 % of Control | 34.35 ± 1.90 % of Control | 81.00 ± 2.38 % of Control | – | 79.7 µM | upregulators | – | – | – | – | – |
| C[C@H]1CC[C@H]2[C@@H](C=C[C@@](C)(O)[C@@H]2C(=O)CCO)[C@@H]1O [Compound 13, pallidopenilline A] | 0% | 0% | 15.5 ± 1.35% | 89.76 ± 3.31 % of Control | 89.76 ± 3.31 % of Control | 71.85 ± 3.02 % of Control | 95.05 ± 1.51 % of Control | – | – | – | – | – | – | – | – |
| CNC(C)C1CCC(N)C(OC2C(N)CC(N)C(OC3OCC(C)(O)C(NC)C3O)C2O)O1 (stereo not shown) [Gentamicin, gentamicin, reference compound] | – | – | – | – | – | – | – | – | – | – | 97.6 ± 2.1% | 98.6 ± 1.15% | – | – | – |
| COc1cccc2c1C(=O)c1c(O)c3c(c(O)c1C2=O)C[C@@](O)(C(=O)CO)C[C@@H]3O[C@H]1C[C@H](N)[C@H](O)[C@H](C)O1 [doxorubicin, reference compound] | – | – | – | – | – | – | – | – | – | – | – | – | 30% | approximately 60% | – |
| O=[N+]([O-])c1ccc(O)c(Cl)c1 [nitrofungin, reference compound] | – | – | – | – | – | – | – | – | – | – | – | – | – | – | 98.13 ± 0.69 % of Control |
| C[C@H]1CC[C@H]2[C@@H](C=C[C@]3(C)OCCC(=O)[C@H]23)[C@@H]1O [zosteropenilline A] | – | – | – | – | – | – | – | – | – | upregulators | – | – | – | – | – |
| C[C@@]1(O)CC[C@@H]2[C@H]3C(=O)CCO[C@@]3(C)C=C[C@H]2C1 [zosteropenilline C] | – | – | – | – | – | – | – | – | – | upregulators | – | – | – | – | – |

— publication PMC11277992, “New Zosteropenillines and Pallidopenillines from the Seagrass-Derived Fungus Penicillium yezoense KMM 4679” (Marine Drugs, 2024)
